Results taken from PubChem BioAssay (NCI).
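Interpolation was linear, between the two tested concentrations surrounding the appropriate level; five concentrations were tested over 48 hours in 96-well plates. TGI marks complete inhibition of growth.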 Where a SMILES comes first, the peptide text is derived from it. The star is where a group is joined. Boc = CC(C)(C)OC(=O)*

Experiments:
Experiment in all cases: NCI-60 cell line screen, 48 h
SN12C renal = system: SN12C renal
NCI-H226 lung = system: NCI-H226 lung
KM12 colon = system: KM12 colon
SK-OV-3 ovarian = system: SK-OV-3 ovarian
SF-295 CNS = system: SF-295 CNS
BT-549 breast = system: BT-549 breast
SK-MEL-5 melanoma = system: SK-MEL-5 melanoma
RXF 393 renal = system: RXF 393 renal
CAKI-1 renal = system: CAKI-1 renal
A549 NSCLC = system: A549 NSCLC

Row | Compound | TGI (SN12C renal) | TGI (NCI-H226 lung) | TGI (KM12 colon) | TGI (SK-OV-3 ovarian) | TGI (SF-295 CNS) | TGI (BT-549 breast) | TGI (SK-MEL-5 melanoma) | TGI (RXF 393 renal) | TGI (CAKI-1 renal) | TGI (A549 NSCLC)
1 | COc1cc(C2c3cc4c(cc3OC(NNC(N)=O)C2C)OCO4)cc(OC)c1OC (stereo not drawn) | > 100 µM | 3.7 µM | > 100 µM | > 100 µM | 0.425 µM | > 100 µM | 22.8 µM | > 100 µM | > 100 µM | > 100 µM
2 | O=P(O)(O)c1ccc(-c2ccc(I)cc2)cc1 | > 100 µM | > 100 µM | > 100 µM | > 100 µM | – | > 100 µM | > 100 µM | > 100 µM | > 100 µM | > 100 µM
3 | O=c1c2c3c(sc2nc2n1N=CN(c1ccccc1)C2)CCCC3 | > 100 µM | > 100 µM | > 100 µM | > 100 µM | > 100 µM | > 100 µM | > 100 µM | > 100 µM | > 100 µM | > 100 µM
4 | CNC(=O)N(CCC#N)CCN(C(=O)NC)c1ccccc1 | > 100 µM | > 100 µM | > 100 µM | > 100 µM | > 100 µM | > 100 µM | > 100 µM | > 100 µM | > 100 µM | > 100 µM
5 | CCOC(=O)/C=C(/C(=O)OCC)n1cc(C)c(=O)n(Cc2cnnn2COCCOC(C)=O)c1=O | 52.4 µM | 28.7 µM | 56.2 µM | > 100 µM | > 100 µM | 31.7 µM | 51.5 µM | 29.6 µM | 11 µM | > 84.2 µM
6 | Cc1ncc([N+](=O)[O-])n1CC[N+](C)([O-])CCCCn1ccnc1[N+](=O)[O-] (stereo not drawn) | > 100 µM | > 100 µM | > 100 µM | > 100 µM | > 100 µM | > 100 µM | > 100 µM | > 100 µM | > 100 µM | > 100 µM
7 | Cc1nn(C(=O)c2ccccc2O)c2c1C(c1ccc(O)cc1O)SC(N)=N2 (stereo not drawn) | > 10 µM | 3.82 µM | > 10 µM | > 10 µM | > 10 µM | 8.39 µM | > 10 µM | > 10 µM | > 10 µM | > 10 µM
8 | N[C@H]1c2c(Br)sc(Br)c2C(=O)[C@H]1O | 3.63 µM | 62 µM | > 100 µM | 38.3 µM | 51.1 µM | 16.5 µM | 41.8 µM | 16.2 µM | 16.7 µM | 70.1 µM
9 | COC(=O)Nc1nc2ccc(S(=O)(=O)Nc3ccccn3)cc2[nH]1 | > 100 µM | > 100 µM | > 100 µM | > 100 µM | > 100 µM | > 100 µM | > 100 µM | > 100 µM | > 100 µM | > 100 µM
10 | O=C1/C(=C/c2ccc(O)cc2)CCCC1CN1CCCCC1 (stereo not drawn) | 7.05 µM | 18.2 µM | 4.93 µM | 30.4 µM | 29.9 µM | 6.89 µM | 17.8 µM | 27.1 µM | 8.3 µM | 31.9 µM
11 | C[C@@]1(CCCCCCCCCCc2ccccc2)C[C@@]2(C)OC(=O)C[C@H]2OO1 | 10.4 µM | 10.9 µM | 38.6 µM | 73.3 µM | 4.97 µM | 0.979 µM | 2.26 µM | 54.3 µM | > 84.1 µM | > 84.6 µM
12 | Cn1c(-c2ccc[se]2)ccc1-c1ccc(C=O)[se]1 | > 67.9 µM | 2.3 µM | > 100 µM | 42.3 µM | 58.8 µM | 65.4 µM | > 100 µM | 7.14 µM | 0.738 µM | > 100 µM
13 | CCC(=O)Nc1cccc(N=Cc2ccc(OC(=O)/C=C\c3ccccc3)cc2)c1 | > 75 µM | > 75 µM | > 75 µM | > 75 µM | > 75 µM | > 75 µM | > 75 µM | 48.1 µM | > 75 µM | > 75 µM
14 | Cc1cc2c(c(C(=O)NCC(=O)N[C@@H](C)C(=O)OCc3ccccc3)c1)Oc1c(cc(C)cc1C(=O)NCC(=O)N[C@@H](C)C(=O)OCc1ccccc1)S2 | > 100 µM | > 100 µM | > 100 µM | > 100 µM | > 100 µM | > 100 µM | > 100 µM | 85.3 µM | > 100 µM | > 100 µM
15 | O=c1[nH]c(=O)c2ncn(-c3ccc([N+](=O)[O-])cn3)c2[nH]1 | > 100 µM | > 100 µM | > 100 µM | > 100 µM | > 100 µM | > 100 µM | > 100 µM | > 100 µM | > 100 µM | > 100 µM
16 | Clc1ccc(CCNC2(c3cc4ccccc4s3)CCCCC2)cc1Cl | > 100 µM | 40.7 µM | 61.8 µM | > 100 µM | 84.3 µM | 84.5 µM | 31.7 µM | 36.7 µM | > 100 µM | > 100 µM
17 | CCOC(=O)c1[nH]cc(C)c1-c1cccn1-c1ccc(Cl)cc1[N+](=O)[O-] | 64.7 µM | 46.2 µM | 52.9 µM | – | 83 µM | 83.7 µM | 28.1 µM | 33.5 µM | > 100 µM | 92.9 µM

Row | Compound | TGI (SN12C renal) | TGI (NCI-H226 lung) | TGI (KM12 colon) | TGI (SK-OV-3 ovarian) | TGI (SF-295 CNS) | TGI (BT-549 breast) | TGI (SK-MEL-5 melanoma) | TGI (RXF 393 renal) | TGI (CAKI-1 renal) | TGI (A549 NSCLC)
18 | CSc1ncc2c(n1)-c1ccccc1OC2N1CCOCC1 (stereo not drawn) | > 100 µM | > 100 µM | > 100 µM | > 100 µM | > 100 µM | > 100 µM | > 100 µM | > 100 µM | > 100 µM | > 100 µM
19 | COC(=O)C(Cc1ccccc1)NC(=O)C(CS)NC(=O)OC(C)(C)C (stereo not drawn) (Boc-Cys-Phe-OMe; configuration not given here) | > 100 µM | > 100 µM | > 100 µM | > 100 µM | > 100 µM | > 100 µM | > 100 µM | > 100 µM | > 100 µM | > 100 µM
20 | CC(C)C(Nc1ncnc2nc[nH]c12)C(=O)O (stereo not drawn) | > 100 µM | > 100 µM | > 100 µM | > 100 µM | > 100 µM | > 100 µM | > 100 µM | > 100 µM | > 100 µM | > 100 µM
21 | O=C(CCBr)N1CCN(C(=O)CCBr)CC1 | 169 µM | 201 µM | 181 µM | 212 µM | 212 µM | 85.3 µM | 149 µM | 150 µM | 168 µM | 140 µM
22 | CC(C)=CC1C(C(=O)Oc2ccccc2C(C)C)C1(C)C (stereo not drawn) | 40.1 µM | – | 38.9 µM | > 100 µM | 33.8 µM | > 100 µM | 33.9 µM | 33.5 µM | > 100 µM | > 100 µM
23 | CN1CCN(C(=O)CCC(=O)Nc2cc3c(c4ccccc24)-c2ccc4ccccc4c2C3)CC1 | 3.64 µM | 3.93 µM | 3.2 µM | 3.09 µM | 3.4 µM | 2.84 µM | 3 µM | 3.45 µM | 3.16 µM | 3.96 µM
24 | COc1ccc(-n2c(SC(CN3CCOCC3)CN3CCCC3=O)nc3ccccc3c2=O)cc1 (stereo not drawn) | > 100 µM | > 100 µM | > 100 µM | > 100 µM | > 100 µM | > 100 µM | > 100 µM | > 100 µM | > 100 µM | > 100 µM
25 | Cc1cc2nc3c(C#N)c4c(c(Nc5ccc(F)cc5)n3c2cc1C)CCC4 | > 100 µM | > 100 µM | > 100 µM | > 100 µM | > 100 µM | > 100 µM | > 100 µM | > 100 µM | > 100 µM | > 100 µM
26 | O=C1/C(=C/c2ccc(Cl)cc2)Oc2cc(O)ccc21 | > 100 µM | 62.3 µM | > 100 µM | 78.8 µM | > 100 µM | > 100 µM | 51.5 µM | > 100 µM | – | 91.7 µM
27 | Cc1cc2cc3cc(C)c(N)cc3nc2cc1N | 1.63 µM | 11.7 µM | 2.03 µM | – | 1.41 µM | > 44.5 µM | 14.6 µM | 2.47 µM | 2.64 µM | 2.07 µM
28 | Cc1ccc(S(=O)(=O)N2CCC[C@@H]2C(=O)O[C@@H]2CCC3CC=CC32)cc1 (stereo partly drawn) | > 100 µM | 68.3 µM | > 100 µM | 48.3 µM | > 100 µM | 44.3 µM | 29.2 µM | 66.5 µM | – | > 100 µM
29 | CC(=O)C1=C(C)O[C@@H]2O[C@H](COCc3ccccc3)[C@@H](OCc3ccccc3)[C@H](O)[C@@H]2S1 | 37.6 µM | 48.6 µM | 38.1 µM | 87.6 µM | 31.3 µM | 46.4 µM | 32.2 µM | 47.7 µM | > 100 µM | > 100 µM
30 | O[C@@H]1C[C@H](Cl)c2c(Cl)sc(Cl)c21 | > 100 µM | – | > 100 µM | > 100 µM | > 100 µM | > 100 µM | > 100 µM | > 100 µM | > 100 µM | > 100 µM
31 | COc1cc(C2c3cc4c(cc3OC(NNc3ccccc3)C2C)OCO4)cc(OC)c1OC (stereo not drawn) | > 62 µM | 6.92 µM | 38 µM | > 100 µM | 5.11 µM | 33.4 µM | 21 µM | > 94.3 µM | > 73 µM | > 42.3 µM
32 | Cn1c2ccc(F)cc2c2ccc3c(c21)C(=O)C=CC3=O | 31 µM | > 91.3 µM | > 91.9 µM | > 100 µM | > 100 µM | > 45 µM | 56.4 µM | 10.5 µM | 11.8 µM | > 100 µM
33 | Clc1cc(-c2ccccc2)nc(Nc2nc3ccccc3[nH]2)n1 | 63 µM | > 100 µM | > 100 µM | > 100 µM | > 100 µM | 52.9 µM | > 100 µM | 19.1 µM | 3.95 µM | > 100 µM
34 | CN(C)Cc1c(O)ccc2c1c1c(n2C)C(=O)c2ccccc2C1=O | > 100 µM | 38.1 µM | 23.9 µM | > 100 µM | 84.6 µM | 42.1 µM | 23.1 µM | 81.5 µM | 70.3 µM | > 100 µM
